Earlier results, collected in patent US20060099208A1, “Method of potentiating the therapeutic action of monoclonal and polyclonal antibodies” (priority 2004, published 2006).
“Also recorded” adds a separate entry of the source. Like-named read-outs stand apart in the source and are kept apart here.

Tests used:
tumor cells [1] = conditions: PUFA combined with anti-cancer drug
skin papilloma = conditions: mice; pure fatty acid or fatty acid rich oils
ascitic tumor cells = conditions: experimental animals; pure fatty acid or fatty acid rich oils
tumor cells [2] = conditions: mixed culture, normal and tumor cells grown together
tumor cells [3] = conditions: in-vitro; for killing of tumor cells: tumor cells and normal cells from American Type Culture Collection
hepatoma = conditions: rats; pure fatty acid or fatty acid rich oils

Compound | survival of normal cells (normal cells; in-vitro) | cytotoxic action of anti-cancer drugs doxorubicin, vincristine and cis-platinum (tumor cells [1]) | growth of skin papilloma (skin papilloma) | growth of ascitic tumor cells in the peritoneum (ascitic tumor cells) | selective tumoricidal action (tumor cells [2]) | tumor cell proliferation (tumor cells [3]) | killing of tumor cells (tumor cells [3]) | formation and growth of hepatoma (hepatoma) | survival of normal cells (normal cells) | side effects (colon cancer; human, in vivo) | extension of colon cancer patients' lives (colon cancer; in combination with chemotherapy, trial of 900 patients)
CCCCC/C=C\C/C=C\C/C=C\C/C=C\CCCC(=O)O [AA, arachidonic acid] | without having any significant action | can be augmented | inhibit the growth | inhibit | effective to some extent | decrease tumor cell proliferation | only tumor cells were killed; also recorded: selectively kill the tumor cells | inhibit | – | – | –
CCCCC/C=C\C/C=C\C/C=C\CCCCCCC(=O)O [DGLA, dihomo-GLA] | – | – | inhibit the growth | inhibit | – | decrease tumor cell proliferation | only tumor cells were killed; also recorded: selectively kill the tumor cells | inhibit | without having any significant action | – | –
CC/C=C\C/C=C\C/C=C\C/C=C\C/C=C\C/C=C\CCC(=O)O [DHA, docosahexaenoic acid] | without having any significant action | can be augmented | – | – | – | – | – | – | – | – | –
CC/C=C\C/C=C\C/C=C\C/C=C\C/C=C\CCCC(=O)O [EPA, eicosapentaenoic acid] | without having any significant action | can be augmented | – | – | – | – | – | – | – | – | –
CCCCC/C=C\C/C=C\C/C=C\CCCCC(=O)O [GLA, gamma-linolenic acid] | without having any significant action | can be augmented | – | inhibit | – | decrease tumor cell proliferation | only tumor cells were killed; also recorded: selectively kill the tumor cells | inhibit | – | – | –
Avastin: humanized monoclonal antibody to VEGF developed by Genentech | – | – | – | – | – | – | – | – | – | many side effects | 5 months
